Series [1] is described as follows: Stability of β-ketoacid substrates (decarboxylation, 1H-NMR or SPE-MS/MS). Format: physicochemical. The protocol: To assess rates of decarboxylation under conditions relevant to storage, biochemical assays, and cellular assays, we investigated the stability of eponemycin-based β-ketoacids 11a and 11c under a variety of conditions as shown in below Table C.
For samples stored neat, β-ketoacid 11 (lyophilized powder) was aliquoted into 1.5-2 mg samples in glass vials and placed under Ar. Samples were stored on the bench top (20-25° C.), in at 4° C. refrigerator or in a −20° C. freezer. At each time point, an entire aliquot was dissolved in CD3OD (600 μL) analyzed by ^1H-NMR for decarboxylation to the corresponding isopropyl ketone byproduct 22. The degree of decarboxylation was determined by comparing integrations of two singlet peaks at 1.40 and 1.33 ppm, arising from the α,α-dimethyl groups in the β-ketoacid 11, to two doublet peaks at 1.09 and 1.06 ppm, arising from the isopropyl methyl groups in the decarboxylation product 22. A septuplet corresponding to the methine proton of the isopropyl group was also observed at 2.91 ppm.
For samples stored in PBS, aliquots of β-ketoacid 11 were dissolved in deuterated PBS (600 μL) and incubated in a 37° C. shaking incubator. At each time point, one aliquot was removed and analyzed by ^1H-NMR as above. NMR changes observed in deuterated PBS were similar to those observed in CD3OD above.
For samples stored in RPMI, β-ketoacid 11 (lyophilized powder) was dissolved in EtOH to a working stock concentration of 20 mM. The sample was diluted in RPMI to 100 μM (1000 μL) and incubated at 37° C. At each time point, an aliquot (50 μL) was removed from the master sample, transferred to a 96-well plate, quenched with 4 vol MeOH, centrifuged at 4,000 g to precipitate debris, and immediately analyzed by SPE-MS/MS to quantitate β-ketoacid 11 remaining.

In series [2] the target is EpnF (Streptomyces hygroscopicus, UniProt V5RMU9). In words: Semiquantitative epoxide capture assay (EpnF-catalyzed epoxyketone formation). It counts as biochemical. As to conditions: 1 μM EpnF; for EpnF-catalyzed formation of epoxyketone (epoxide capture): 250 μM β-ketoacid substrate, 1 h, positive control 11n (FIG. 1); for EpnF-catalyzed conversion to epoxyketone (epoxide capture): 240 μM β-ketoacid substrate (FIG. 2). The protocol:
Recombinant EpnF was diluted to 1 μM in 180 μL EpnF Buffer in an 1.5 mL Eppendorf tube. The β-ketoacid 11 was added at various concentrations to a total reaction volume of 200 μL. The mixture was incubated in a heated shaker at 37° C. and 225 rpm for 1 h. The reaction mixture (30 μL×3 technical replicates) was transferred to a white, opaque 96-well plate (PerkinElmer, OptiPlate-96). Each plate also contained 30 μL×3 technical replicates of EpnF Buffer as a negative control. To each well, 15 μL of 125 mM nicotinamide in EpnF Buffer was added and mixed by pipetting. The plate was sealed with an adhesive foil cover (VWR Adhesive Foil for Microplates) and heated in an oven at 80° C. for 1 h. The plate was cooled to rt and 25 μL of 15% (v/v) acetophenone in EtOH and 25 μL of 1 M potassium hydroxide in EtOH were added to each well, then mixed by pipetting. The plate was cooled on ice for 10 min, then 125 μL formic acid was added to each well. The plate was resealed and heated in an oven at 100° C. for 5 min. The plate was cooled on ice for 5-10 min, then analyzed (λex 370 nm, λem 430 nm) on a fluorescence plate reader (Molecular Devices Spectramax M3).
We adapted a reported epoxide capture assay [Nelis, H. J. C. F.; Sinsheimer, J. E. (1981) A sensitive fluorimetric procedure for the determination of aliphatic epoxides under physiological conditions. Anal. Biochem. 115, 151-157.] to 96-well plate format to detect formation of the epoxyketone products semiquantitatively. Each β-ketoacid substrate 11 was incubated with recombinant, purified EpnF (1 h), then reacted with nicotinamide and acetophenone (1 h) to form a fluorescent 1,6-naphthyridinone 24. The fluorescent signals were normalized to that resulting from the known substrate β-ketoacid 11n as a positive control [Zabala, D.; Cartwright, J. W.; Roberts, D. M.; Law, B. J. C.; Song, L.; Samborskyy, M.; Leadlay, P. F.; Micklefield, J.; Challis, G. L. (2016) A flavin-dependent decarboxylase-dehydrogenase-monooxygenase assembles the warhead of α,β-epoxyketone proteasome inhibitors. J. Am. Chem. Soc. 138, 4342-4345.].

Series [3] concerns Raji B-cell lymphoma. In words: Cytotoxicity of epoxyketones, CellTitre-Glo, 48 h. Format: cell-based. The settings on record: Homo sapiens. The protocol:
(§1) Cytotoxicity Assays. Cancer cell lines (ATCC: U266 multiple myeloma, EL4 mouse lymphoma, Raji B-cell lymphoma) were cultured in Roswell Park Memorial Institute (RPMI) medium supplemented with 10% fetal bovine serum (FBS), 2 mM L-glutamine, 100 IU/mL penicillin, 100 μg/mL nonessential amino acids, 1 mM sodium pyruvate, and 57 μM β-mercaptoethanol. Cells (90 μL) were seeded in the inner 60 wells of an opaque-wall, clear flat-bottom 96-well plate (Corning/Falcon, 351177) at 20,000 cells per well. The outer perimeter wells were filled with 200 μL PBS to reduce evaporation in the central 60 wells. Epoxyketones 12 (20 mM in DMSO) were diluted in RPMI media to 1 mM (5% DMSO final concentration). Each epoxyketone was then diluted log-fold into 10 concentrations with 5% DMSO in RPMI. Each epoxyketone solution (10 μL) was added to the cells for a 0.5% DMSO final concentration across all wells and final epoxyketone concentrations of 100-0.005 μM. Negative control wells were treated with 10 μL of 5% DMSO in RPMI. Cells were incubated with compounds for 48 h, then cytotoxicity was measured with the CellTitre-Glo assay (Promega G9241).

The test system of series [4] is U266 multiple myeloma. In words: Cytotoxicity of epoxyketones, CellTitre-Glo, 48 h. It counts as cell-based. The settings on record: Homo sapiens, U-266, U266, 48 h. The protocol:
as §1

Series [5] concerns EL4 mouse lymphoma. In words: Cytotoxicity of epoxyketones, CellTitre-Glo, 48 h. Format: cell-based. As to conditions: EL4, 48 h. The protocol:
as §1

The record followed here is patent publication US20260234116A1, “CYTOTOXIC EPOXYKETONE COMPOUNDS, PRECURSORS, COMPOSITIONS, AND METHODS OF USE” (Memorial Sloan-Kettering Cancer Center, priority 2023, published 2026).

Read-outs that look alike come from different tables or passages of the source.

In general, half-life refers to the time needed for the level to fall by half in the phase considered. What is called IC50 is the concentration needed to halve the response being measured.

Chain of EpnF (V5RMU9 entry or part of it): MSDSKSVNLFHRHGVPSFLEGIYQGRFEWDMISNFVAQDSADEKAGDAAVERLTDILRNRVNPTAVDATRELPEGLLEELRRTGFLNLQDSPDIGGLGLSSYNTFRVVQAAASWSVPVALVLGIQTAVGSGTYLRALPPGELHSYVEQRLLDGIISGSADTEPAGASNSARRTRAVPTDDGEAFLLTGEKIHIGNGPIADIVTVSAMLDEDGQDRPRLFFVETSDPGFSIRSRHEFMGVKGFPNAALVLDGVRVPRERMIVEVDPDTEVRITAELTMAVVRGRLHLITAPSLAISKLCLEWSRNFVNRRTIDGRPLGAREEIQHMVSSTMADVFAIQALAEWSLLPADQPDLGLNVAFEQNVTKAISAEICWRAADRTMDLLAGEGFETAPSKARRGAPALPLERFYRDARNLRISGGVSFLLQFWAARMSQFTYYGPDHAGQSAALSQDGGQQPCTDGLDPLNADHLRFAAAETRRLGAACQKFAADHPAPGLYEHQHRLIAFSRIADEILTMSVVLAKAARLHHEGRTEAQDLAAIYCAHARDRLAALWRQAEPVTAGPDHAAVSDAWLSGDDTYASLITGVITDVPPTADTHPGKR

`CC(C)CCCCC(=O)N[C@@H](CO)C(=O)N[C@@H](CC(C)C)C(=O)C(C)(CO)C(=O)O` (single isomer, unassigned) [Compound 11c] showed a half-life in series [1] (deuterated PBS, PBS, 37° C.) of 15 min. Also, the “stability / rate of decarboxylation (in words)” value in series [1] (neat at low temperatures, buffer or media at 37° C.) was “considerably faster”. Besides, the “EpnF-catalyzed formation of epoxyketone (epoxide capture)” value in series [2] is “no epoxide formation was detected”.
As for `C=C(C)C[C@H](NC(=O)[C@H](CO)NC(=O)CCCCC(C)C)C(=O)C(C)(CO)C(=O)O` (single isomer, unassigned) [Compound 11d], the “EpnF-catalyzed formation of epoxyketone (epoxide capture)” value in series [2] was “no epoxide formation was detected”.
On to `CC(C)CCCCC(=O)N[C@@H](CO)C(=O)N[C@@H](CC(C)C)C(=O)C(C)C(=O)O` (some centres unmarked) [Compound 11e], for which the “EpnF-catalyzed conversion to epoxyketone (epoxide capture)” value in series [2] was “not tolerated”.
Still for that read-out and setting: the result for `CC(C)CCCCC(=O)N[C@@H](CO)C(=O)N[C@@H](C)C(=O)C(C)(C)C(=O)O` [Compound 11f, (4S)-4-[(2S)-3-Hydroxy-2-(6-methylheptanamido)propanamido]-2,2-dimethyl-3-oxopentanoic acid] reads “could not be truncated to alanine”; that for `CC(C)CCCCC(=O)N[C@@H](C)C(=O)N[C@@H](CC(C)C)C(=O)C(C)(C)C(=O)O` [Compound 11j, (4S)-2,2,6-Trimethyl-4-[(2S)-2-(6-methylheptanamido)propanamido]-3-oxoheptanoic acid], “tolerated”.
Same read-out and setting: the value for `CC(C)CCCCC(=O)N[C@@H](Cc1ccccc1)C(=O)N[C@@H](CC(C)C)C(=O)C(C)(C)C(=O)O` [Compound 11m, (4S)-2,2,6-Trimethyl-4-[(2S)-2-(6-methylheptanamido)-3-phenylpropanamido]-3-oxoheptanoic acid] was “not accepted”.
For the compound `CC(C)CCCCC(=O)N[C@@H](C)C(=O)N[C@@H](CC(C)C)C(=O)[C@@]1(C)CO1` [Compound 12j, 6-Methyl-N-[(1S)-1-{[(2S)-4-methyl-1-[(2R)-2-methyloxiran-2-yl]-1-oxopentan-2-yl]carbamoyl}ethyl]heptanamide], the IC50 in series [3] (read-out: IC50) is 1.9 µM; in series [3] (read-out: log IC50 (converted)) it was 1.91 µM; in series [4] (read-out: IC50), 2.2 µM; in series [4] (read-out: log IC50 (converted)), 2.19 µM; in series [5] (read-out: IC50), 3.2 µM; in series [5] (read-out: log IC50 (converted)) it was 3.02 µM.
Turning to `CC(C)CCCCC(=O)N[C@H](C(=O)N[C@@H](CC(C)C)C(=O)[C@@]1(C)CO1)[C@@H](C)O` [Compound 12l, N-[(1S)-2-Hydroxy-1-{[(2S)-4-methyl-1-[(2R)-2-methyloxiran-2-yl]-1-oxopentan-2-yl]carbamoyl}propyl]-6-methylheptanamide], the IC50 was 2.1 µM in series [3] (read-out: IC50); 2.09 µM in series [3] (read-out: log IC50 (converted)); 2.1 µM in series [4] (read-out: IC50); 2.14 µM in series [4] (read-out: log IC50 (converted)); 3.7 µM in series [5] (read-out: IC50); 3.55 µM in series [5] (read-out: log IC50 (converted)).
For the compound `CCCC(=O)N[C@@H](CO)C(=O)N[C@@H](CC(C)C)C(=O)[C@@]1(C)CO1` [Compound 12n], the IC50 in series [3] (read-out: IC50) is 5.4 µM; in series [3] (read-out: log IC50 (converted)), 5.37 µM; in series [4] (read-out: IC50), 4.8 µM; in series [4] (read-out: log IC50 (converted)) it was 4.79 µM; in series [5] (read-out: IC50) it was 5.7 µM; in series [5] (read-out: log IC50 (converted)) it was 5.37 µM.
Take `CC(C)C[C@H](NC(=O)[C@H](CO)NC(=O)c1ccccc1)C(=O)[C@@]1(C)CO1` [Compound 12o, (2S)-3-Hydroxy-N-[(2S)-4-methyl-1-[(2R)-2-methyloxiran-2-yl]-1-oxopentan-2-yl]-2-(phenylformamido)propenamide]: the IC50 in series [3] (read-out: IC50) was 3.6 µM; in series [3] (read-out: log IC50 (converted)), 3.47 µM; in series [4] (read-out: IC50) it was 2.7 µM; in series [4] (read-out: log IC50 (converted)) it was 2.69 µM; in series [5] (read-out: IC50) it was 7.2 µM; in series [5] (read-out: log IC50 (converted)) it was 7.24 µM.
